In patent publication EP0258782A2, “Use of 1-(substituted mercapto-hydroxyethyl)-triazoles in the treatment of illnesses” (BAYER AG, priority 1986, dated 1988):
Values after ≈ are worked out from the molar mass of the structure shown.

Legend:
[1] = test system: Candida albicans; assay: Antimycotic in-vitro activity, serial dilution test (MIC); type: cell-based; conditions: Fleischextrakt-Traubenzucker-Bouillon, 28-37 °C, 24-96 h, inoculum 5 x 10^3 to 10^4 germs/ml, read-out: MHK-Werte in γ/ml Nährmedium, Candida albicans
Protocol: (§1) Die in-vitro-Prüfungen wurden im Reihenverdünnungstest mit Keiminokula von durchschnittlich 5 x 10³ bis 10⁴ Keimen/ml Substrat durchgeführt. Als Nähmedium dienten • a) für Dermatophyten und Schimmelpilze: Sabouraud's milieu d'epreuve • b) für Hefen: Fleischextrakt-Traubenzucker-Bouillon.
(§2) Die Bebrütungstemperatur betrug 28 °C bis 37 °C, die Bebrütungsdauer lag bei 24 bis 96 Stunden bei Hefen und 96 Stunden bei Dermatophyten und Schimmelpilzen.

[2] = test system: Aspergillus fumigatus; assay: as above; type: cell-based; conditions: Sabouraud's milieu d'epreuve, 28-37 °C, 96 h, inoculum 5 x 10^3 to 10^4 germs/ml, read-out: MHK-Werte in γ/ml Nährmedium, Aspergillus fumigatus
Protocol: as §1, §2

[3] = test system: Torulopsis glabrata; assay: as above; type: cell-based; conditions: Nakaseomyces glabratus; Fleischextrakt-Traubenzucker-Bouillon; 28-37 °C, 24-96 h; inoculum 5 x 10^3 to 10^4 germs/ml; read-out: MHK-Werte in γ/ml Nährmedium, Torulopsis glabrata
Protocol: as §1, §2

[4] = test system: Microsporum canis; assay: as above; type: cell-based; conditions: Sabouraud's milieu d'epreuve, 28-37 °C, 96 h, inoculum 5 x 10^3 to 10^4 germs/ml, read-out: MHK-Werte in γ/ml Nährmedium, Microsporum canis
Protocol: as §1, §2

[5] = test system: Trichophyton mentagr.; assay: as above; type: cell-based; conditions: Sabouraud's milieu d'epreuve, 28-37 °C, 96 h, inoculum 5 x 10^3 to 10^4 germs/ml, read-out: MHK-Werte in γ/ml Nährmedium, Trichophyton mentagr.
Protocol: as §1, §2

[6] = test system: Candida-Zellen; assay: Antimycotic in-vivo activity (oral) in mouse candidosis; design: species or system Mäuse vom Typ SPF-CF1; conditions: for Wirkung (Überlebende am 6. Tag p.i.): mice infected i.v. with Candida, 25-100 mg/kg oral, 1 h before and 7 h after infection; for Wirkung compared with (A) and (B): mouse candidosis, oral, statement in words
Protocol: Mäuse vom Typ SPF-CF₁ wurden intravenös mit 1 - 2 x 10⁶ logarithmisch wachsenden Candida-Zellen, die in physiologischer Kochsalzlösung suspendiert werden, infiziert. Eine Stunde vor und sieben Stunden nach der Infektion werden die Tiere mit jeweils 25 - 100 mg/kg Körpergewicht der Präparate oral behandelt.
Unbehandelte Tiere starben 3 bis 6 Tage post infektionem. Die Überlebensrate am 6.Tag post infektionem betrug bei unbehandelten Kontrolltieren etwa 5 %.

[7] = test system: Trichophyton mentagrophytes; assay: In-vivo activity (local) in experimental guinea pig trichophytosis; design: species or system Meerschweinchen der Rasse Pirbright-white
From the text: Weiße Meerschweinchen der Rasse Pirbright-white wurden auf dem geschorenen, nicht skarifizierten Rücken mit einer Mikro- und Makrokoniden-Suspension von Trichophyton mentagrophytes infiziert.
Die infizierten Tiere wurden beginnend mit dem 3.Tag p.i. 1 x täglich mit einer 0,1 %igen Lösung der erdingungsgemäßen Präparate (in Dimethylsulfoxid : Glycerin = 1 : 4) lokal behandelt.
Bei unbehandelten Tieren entwickelte sich innerhalb von 12 Tagen p.i. das Typische Bild einer Dermatophytose mit Rötung, Schuppung und Haarausfall bis zum totalen Integument-Defekt an der Infektionsstelle.

Compound	MIC [1] [mg/L]	MIC [2] [mg/L]	MIC [3] [mg/L]	MIC [4] [mg/L]	MIC [5] [mg/L]	Wirkung (Überlebende am 6. Tag p.i.) [6]	Wirkung compared with (A) and (B) [6]	Wirkung (Infektionszeichen) ([7]; 0,1 % solution in Dimethylsulfoxid : Glycerin = 1 : 4, local, once daily from day 3 p.i.)	Wirkung (in words) ([7]; guinea pig trichophytosis, local, 0,1 % solution, statement in words)
CCCCSCC(O)(Cn1cncn1)C(C)(C)Cc1ccc(SC(F)(F)F)cc1 (stereo not drawn) [I-61]	8 (≈ 17.9 µM)	2 (≈ 4.47 µM)	32 (≈ 71.5 µM)	2 (≈ 4.47 µM)	< 1	–	–	–	–
CC(C)SCC(O)(Cn1cncn1)C(C)(C)Cc1ccc(F)cc1 (stereo not drawn) [I-55]	2 (≈ 5.69 µM)	2 (≈ 5.69 µM)	2 (≈ 5.69 µM)	2 (≈ 5.69 µM)	< 1	–	–	–	–
CC(C)(Cc1ccc(SC(F)(F)F)cc1)C(O)(CS)Cn1cncn1 (stereo not drawn) [I-63]	2 (≈ 5.11 µM)	< 1	16 (≈ 40.9 µM)	2 (≈ 5.11 µM)	< 1	–	–	–	–
CC(C)(Cc1ccc(F)cc1)C(O)(CSCc1ccc(Cl)cc1)Cn1cncn1 (stereo not drawn) [I-58]	2 (≈ 4.61 µM)	8 (≈ 18.4 µM)	< 1	4 (≈ 9.22 µM)	< 1	–	–	–	–
CCCSCC(O)(Cn1cncn1)C(C)(C)Cc1ccc(SC(F)(F)F)cc1 (stereo not drawn) [I-60]	2 (≈ 4.61 µM)	< 1	4 (≈ 9.23 µM)	2 (≈ 4.61 µM)	< 1	–	–	–	–
CCCCSCC(O)(Cn1cncn1)C(C)(C)Cc1ccc(Cl)cc1 (stereo not drawn) [I-47]	2 (≈ 5.24 µM)	< 1	4 (≈ 10.5 µM)	4 (≈ 10.5 µM)	< 1	–	–	–	–
CC(C)(Oc1ccc(-c2ccccc2)cc1)C(O)(CSc1ccc(Cl)cc1)Cn1cncn1 (stereo not drawn) [I-93]	–	–	–	–	–	+++++ (= sehr gute Wirkung = 90 % Überlebende am 6.Tag.p.i.)	bessere Wirkung	–	–
Cc1cccc(CC(C)(C)C(O)(CSC(C)C)Cn2cncn2)c1 (stereo not drawn) [I-65]	2 (≈ 5.75 µM)	4 (≈ 11.5 µM)	16 (≈ 46 µM)	4 (≈ 11.5 µM)	2 (≈ 5.75 µM)	–	–	–	–
CCSCC(O)(Cn1cncn1)C(C)(C)Cc1ccc(Cl)cc1 (stereo not drawn) [I-45]	2 (≈ 5.65 µM)	< 1	2 (≈ 5.65 µM)	< 1	< 1	–	–	–	–
CCCSCC(O)(Cn1cncn1)C(C)(C)Cc1ccc(OC(F)(F)F)cc1 (stereo not drawn) [I-51]	< 1	< 1	< 1	< 1	< 1	++ (= schwache Wirkung = 40 % Überlebende am 6.Tag.p.i.)	bessere Wirkung	–	–
CCSCC(O)(Cn1cncn1)C(C)(C)COc1ccc(Cl)cc1 (stereo not drawn) [I-68]	< 1	< 1	4 (≈ 10.8 µM)	< 1	< 1	–	–	–	–
Cc1cc(Cl)ccc1OC(C)(C)C(O)(CSc1ccc(Cl)cc1)Cn1cncn1 (stereo not drawn) [I-94]	–	–	–	–	–	++++ (= gute Wirkung = 80 % Überlebende am 6.Tag.p.i.)	bessere Wirkung	–	–
CC(C)SCC(O)(Cn1cncn1)C(C)(C)Cc1ccc(Cl)cc1 (stereo not drawn) [I-46]	< 1	< 1	< 1	4 (≈ 10.9 µM)	< 1	++ (= schwache Wirkung = 40 % Überlebende am 6.Tag.p.i.)	bessere Wirkung	–	–
C=CCSCC(O)(Cn1cncn1)C(C)(C)Cc1ccc(Cl)cc1 (stereo not drawn) [I-44]	< 1	< 1	4 (≈ 10.9 µM)	< 1	< 1	–	–	–	–
CCSCC(O)(Cn1cncn1)C(C)(C)Cc1cccc(C)c1 (stereo not drawn) [I-64]	< 1	4 (≈ 12 µM)	4 (≈ 12 µM)	2 (≈ 6 µM)	2 (≈ 6 µM)	–	–	–	–
CC(C)CSCC(O)(Cn1cncn1)C(C)(C)Cc1ccc(Cl)cc1 (stereo not drawn) [I-43]	< 1	< 1	4 (≈ 10.5 µM)	< 1	< 1	–	–	–	–
CCCSCC(O)(Cn1cncn1)C(C)(C)Cc1ccc(Cl)cc1 (stereo not drawn) [I-41]	< 1	< 1	4 (≈ 10.9 µM)	< 1	< 1	–	–	–	–
CCCCSCC(O)(Cn1cncn1)C(C)(C)Cc1cccc(C)c1 (stereo not drawn) [I-66]	< 1	4 (≈ 11.1 µM)	8 (≈ 22.1 µM)	4 (≈ 11.1 µM)	4 (≈ 11.1 µM)	–	–	–	–
CCSCC(O)(Cn1cncn1)C(C)(C)Cc1ccc(C)cc1 (stereo not drawn) [I-50]	< 1	< 1	4 (≈ 12 µM)	< 1	< 1	–	–	–	–

Continued, in another order:

MIC [1] [mg/L]	MIC [2] [mg/L]	MIC [3] [mg/L]	MIC [4] [mg/L]	MIC [5] [mg/L]	Compound	Wirkung (Überlebende am 6. Tag p.i.) [6]	Wirkung compared with (A) and (B) [6]	Wirkung (Infektionszeichen) ([7]; 0,1 % solution in Dimethylsulfoxid : Glycerin = 1 : 4, local, once daily from day 3 p.i.)	Wirkung (in words) ([7]; guinea pig trichophytosis, local, 0,1 % solution, statement in words)
< 1	< 1	2 (≈ 5.75 µM)	2 (≈ 5.75 µM)	< 1	CCCSCC(O)(Cn1cncn1)C(C)(C)Cc1ccc(C)cc1 (stereo not drawn) [I-49]	–	–	–	–
< 1	4 (≈ 12 µM)	2 (≈ 6 µM)	2 (≈ 6 µM)	< 1	CCSCC(O)(Cn1cncn1)C(C)(C)Cc1ccccc1C (stereo not drawn) [I-67]	–	–	–	–
< 1	< 1	2 (≈ 5.69 µM)	2 (≈ 5.69 µM)	< 1	CCCSCC(O)(Cn1cncn1)C(C)(C)Cc1ccc(F)cc1 (stereo not drawn) [I-53]	–	–	–	–
< 1	< 1	16 (≈ 39.7 µM)	2 (≈ 4.96 µM)	< 1	CCSCC(O)(Cn1cncn1)C(C)(C)Cc1ccc(OC(F)(F)F)cc1 (stereo not drawn) [I-52]	++++ (= gute Wirkung = 80 % Überlebende am 6.Tag.p.i.)	bessere Wirkung	+++++	sehr gute Wirkung
< 1	2 (≈ 5.93 µM)	4 (≈ 11.9 µM)	2 (≈ 5.93 µM)	< 1	CCSCC(O)(Cn1cncn1)C(C)(C)Cc1ccc(F)cc1 (stereo not drawn) [I-2]	–	–	–	–
< 1	< 1	8 (≈ 23.5 µM)	< 1	< 1	CSCC(O)(Cn1cncn1)C(C)(C)Cc1ccc(Cl)cc1 (stereo not drawn) [I-42]	–	–	–	–
< 1	8 (≈ 20.1 µM)	8 (≈ 20.1 µM)	2 (≈ 5.03 µM)	< 1	CCCSCC(O)(Cn1cncn1)C(C)(C)COc1ccc(Cl)c(C)c1 (stereo not drawn) [I-70]	–	–	–	–
< 1	2 (≈ 4.61 µM)	< 1	< 1	< 1	CC(C)SCC(O)(Cn1cncn1)C(C)(C)Cc1ccc(SC(F)(F)F)cc1 (stereo not drawn) [I-62]	++ (= schwache Wirkung = 40 % Überlebende am 6.Tag.p.i.)	bessere Wirkung	–	–
< 1	2 (≈ 5.21 µM)	16 (≈ 41.7 µM)	< 1	< 1	CCSCC(O)(Cn1cncn1)C(C)(C)COc1ccc(Cl)c(C)c1 (stereo not drawn) [I-69]	–	–	–	–
